# Where “and” joins values, the source holds several entries; their conditions need not be identical. Identical values can stand only once. Like-named read-outs stand apart in the source and are kept apart here.
# What was measured:
# Or83b receptor = molecular target: T1, Or83b receptor (Drosophila melanogaster, UniProt Q9VNB5); test: Intracellular Ca^2+ mobilization in Schneider cells expressing Or83b receptor; assay type: cell-based; details: ionomycin about 2 μM, tyramine about 10 μM
# T1 construct: His (from vector pAc5.1/V5-His B) (C); expressed in transfected cells
# T1 sequence (Q9VNB5 1-486): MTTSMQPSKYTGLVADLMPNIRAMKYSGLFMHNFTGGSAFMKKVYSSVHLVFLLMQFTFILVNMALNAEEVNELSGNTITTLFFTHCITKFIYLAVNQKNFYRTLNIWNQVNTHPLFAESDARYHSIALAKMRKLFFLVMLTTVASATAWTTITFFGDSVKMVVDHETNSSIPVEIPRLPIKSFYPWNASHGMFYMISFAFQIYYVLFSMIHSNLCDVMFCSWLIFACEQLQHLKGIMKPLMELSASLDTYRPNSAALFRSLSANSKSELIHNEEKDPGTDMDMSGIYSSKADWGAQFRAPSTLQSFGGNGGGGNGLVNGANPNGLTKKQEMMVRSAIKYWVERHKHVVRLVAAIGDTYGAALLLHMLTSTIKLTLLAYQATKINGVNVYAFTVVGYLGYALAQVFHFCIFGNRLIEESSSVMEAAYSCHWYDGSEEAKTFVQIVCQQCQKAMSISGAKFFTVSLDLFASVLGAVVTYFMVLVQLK
# Protocol: (§1) Intracellular calcium ion concentrations ([Ca^2+]i) are measured by using the acetoxymethyl (AM) ester of the fluorescent indicator fura-2 (Enan, et al., Biochem. Pharmacol vol 51, 447-454). In this study, cells expressing tyramine receptor are grown under standard conditions. A cell suspension is prepared in assay buffer (140 mM NaCL, 10 mM HEPES, 10 mM glucose, 5 mM KCl, 1 mM CaCl2, 1 mM MgCl2) and cell number adjusted to about 2×10^6 cells per ml. Briefly, about 1.0 ml cell suspension (about 2×10^6 cells) is incubated with about 5 μM Fura 2/AM for about 30 min at about 28° C. After incubation, the cells are pelleted at about 3700 rpm for about 10 sec at room temperature and then resuspended in about 1.5 ml assay buffer. [Ca^2+]i changes are analyzed in spectrofluorometer in the presence and absence of test chemicals. Excitation wave lengths are about 340 nm (generated by Ca^2+-bound fura-2) and about 380 nm (corresponding to Ca^2+-free fura-2). The fluorescence intensity is monitored at an emission wave length of about 510 nm. No absorbance of fluorescence artifacts are observed with any of the compounds used. The ratio of about 340/380 nm is calculated and plotted as a function of time.
# (§2) Intracellular Ca^2+ levels are measured using the method described above in Example 3.
# Or43a receptor = molecular target: T2, Or43a receptor (Drosophila melanogaster, UniProt P81917, L154V); test: Intracellular Ca^2+ mobilization in Schneider cells expressing Or43a receptor; assay type: cell-based
# T2 construct: His (from vector pAc5.1/V5-His B) (C); expressed in transfected cells
# T2 sequence (P81917 whole entry L154V): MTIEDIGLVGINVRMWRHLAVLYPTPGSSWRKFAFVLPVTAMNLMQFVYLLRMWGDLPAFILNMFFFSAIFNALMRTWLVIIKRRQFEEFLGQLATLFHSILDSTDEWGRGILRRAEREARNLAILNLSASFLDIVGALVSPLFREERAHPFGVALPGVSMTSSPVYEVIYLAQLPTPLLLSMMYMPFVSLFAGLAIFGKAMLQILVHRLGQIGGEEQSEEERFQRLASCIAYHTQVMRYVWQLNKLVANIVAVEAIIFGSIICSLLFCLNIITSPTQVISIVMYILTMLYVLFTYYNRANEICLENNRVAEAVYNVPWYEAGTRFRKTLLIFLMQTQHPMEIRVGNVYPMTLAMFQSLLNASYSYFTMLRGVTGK
# Protocol: as §1, §2
# Changes in intracellular Ca^2+ levels are calculated based on the difference between the 340/380 fluorescence ratios before and after approximately 150 seconds of the treatment.
# tyramine receptor (TyrR) [1] = molecular target: T3, tyramine receptor (TyrR) (Drosophila melanogaster, UniProt P22270); details: displacement of about 2 nM ^3H-tyramine
# T3 sequence (P22270 27-601): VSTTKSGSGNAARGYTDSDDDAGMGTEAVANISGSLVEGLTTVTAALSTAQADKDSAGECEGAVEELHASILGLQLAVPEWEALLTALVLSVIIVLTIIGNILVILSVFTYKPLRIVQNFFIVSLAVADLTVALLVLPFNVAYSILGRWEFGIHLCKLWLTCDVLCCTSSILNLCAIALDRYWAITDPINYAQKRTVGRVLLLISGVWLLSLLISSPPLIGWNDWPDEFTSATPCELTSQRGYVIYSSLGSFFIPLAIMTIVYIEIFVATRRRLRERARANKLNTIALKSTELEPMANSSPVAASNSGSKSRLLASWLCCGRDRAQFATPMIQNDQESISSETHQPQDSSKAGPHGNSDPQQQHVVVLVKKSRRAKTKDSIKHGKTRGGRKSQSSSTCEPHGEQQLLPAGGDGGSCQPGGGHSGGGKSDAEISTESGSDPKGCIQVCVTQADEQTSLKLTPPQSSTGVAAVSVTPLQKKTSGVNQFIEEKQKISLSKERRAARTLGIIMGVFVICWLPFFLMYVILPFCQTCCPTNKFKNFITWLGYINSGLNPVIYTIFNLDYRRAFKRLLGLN
# Protocol: (§3) A preliminary study to determine the optimum concentration of membrane protein for receptor binding activity is performed. […] After about 1 hr incubation at room temperature, reactions are terminated by filtration through GF/C filters (VWR), which have been previously soaked in about 0.3% polyethyleneimine (PEI). The filters are washed one time with about 4 ml ice cold Iris buffer and air dried before the retained radioactivity is measured using LSC. Binding data is analyzed by curve fitting (GraphPad software, Prism).
# (§4) Receptor binding reactions are incubated for about 1 hr at room temperature (RT) in restricted light. Reactions are terminated by filtration through OF/C filters (VWR), which have been previously soaked in about 0.3% polyethyleneimine (PEI). The filters are washed one time with about 4 ml ice cold Tris buffer and air dried before retained radioactivity is measured using LSC. Binding data is analyzed by curve fitting (GraphPad software, Prism).
# tyramine receptor (TyrR) [2] = molecular target: T3, tyramine receptor (TyrR); test: Saturation binding of ^3H-tyramine to membranes from Schneider cells expressing tyramine receptor
# Protocol: as §3, §4
structure (smiles),measurement,setting,value
NCCc1ccc(O)cc1 [tyramine],increase in intracellular calcium,Or83b receptor,~1.18 fold
same,change in intracellular Ca^2+ levels (340/380 fluorescence ratio),Or43a receptor; before vs approximately 150 seconds after treatment,only negligibly
same,increase in intracellular calcium,"Or43a receptor; ionomycin about 2 μM, tyramine about 10 μM",~3.5 fold
same,EC50,tyramine receptor (TyrR) [1]; EC50 (concentration at which binding is inhibited by 50%),~305 nM and 305 nM
same,Ki,tyramine receptor (TyrR) [1]; Ki,~127 nM and 127 nM
same,Ki,tyramine receptor (TyrR) [2],1.26 nM
same,Bmax,"tyramine receptor (TyrR) [2]; saturation binding, membranes expressing TyrR, listed as Tyramine",0.679 pmol/mg protein
